Test results published in patent US12421254B2, “KRAS modulators and uses thereof” (Quanta Therapeutics, Inc., priority 2023, dated 2025).

Legend:
[1] = system: phospho-ERK in SW620 (KRAS-G12V) cells; assay: pERK In Cell Western (ICW) assay (Method B), SW620; format: cell-based; settings: Homo sapiens, SW-620, 3 h, Table 4
Experimental: (§1) pERK ICW is a high throughput screening assay to evaluate the cellular potency of mutant KRAS small molecule inhibitors. KRAS mutant cell lines AGS, GP2D (KRAS-G12D) as well as SW620 (KRAS-G12V) were purchased from ATCC and maintained respectively in RPMI/DMEM/RPMI medium supplemented with 10% fetal bovine serum.
(§2) Cells grown in exponential phase were trypsinized, resuspended in fresh media, and viable cells were counted using a cell counter with Trypan Blue (BioRad TC20). Cells were seeded into 384-well plate (Greiner 781091) at density of 5,000 cells/well for AGS and 10,000 cells/well for GP2D/SW620 and allowed to grow overnight in a 37° C. CO2 incubator. The next day, compounds were dispensed into wells with a ½ log, 9-point serial dilution using a Tecan D300e dispenser and incubated for 3 hours in a 37° C. CO2 incubator. Cells were then fixed with paraformaldehyde (Electron Microscopy Sciences, 15710, 4% final concentration) for 30 min, permeabilized with wash buffer (1×PBS+0.1% Triton X-100) for 30 min and blocked with Odyssey blocking buffer (Li—COR 927-70001) for 1 hour, all at room temperature (RT). Phospho-ERK antibody (CST 4370L) was diluted 1:500 in Odyssey T20 (PBS) antibody diluent (Li—COR 927-75001) and incubated with cells overnight at 4° C. The next day, plates were washed 5× with wash buffer, incubated with IRDye 800 CW, Goat anti-Rabbit secondary antibody (Li—COR 926-32211, 1:800) and DRAQ5 (CST 4084L, 1:5,000) diluted in Odyssey T20 (PBS) antibody diluent for 1 hour, washed 5×, and imaged on an Odyssey CLx imaging system.
(§3) For data analysis, signal intensities from 800 (phosphor-ERK) and 700 (DRAQ5) channels were extracted, and phospho-ERK signals were normalized to DRAQ5 signals for each well and percent of blank control values were computed. Data were then imported into Graphpad Prism to compute half-maximal inhibitory concentrations (IC50) using a 4-parameter variable slope model. Z-factor for each plate was computed from signals derived from wells treated with either DMSO or 5 μM of control compound. AGS pERK ICW (Method B) IC50 (uM) values of selected compounds are depicted in Table 2 with compounds having a value ≥0.001 uM to 0.01 uM as ++++; ≥0.01 uM to 0.1 uM as +++; ≥0.1 uM to 1 uM as ++; ≥1 uM to 10 uM as + and ≥10 uM as NA.

[2] = system: phospho-ERK in GP2D (KRAS-G12D) cells; assay: pERK In Cell Western (ICW) assay (Method B), GP2D; format: cell-based; settings: GP2d, 3 h, Table 4
Experimental: as §1, §2, §3

[3] = target: GST-tagged KRAS-G12D (2-169) (Homo sapiens, UniProt P01116, G12D); assay: Nucleotide exchange assay (NEA), SOS-mediated, HTRF, KRAS G12D; format: biochemical; settings: Table 4; IC50 extracted at 30 min; 20 nM SOScat; read-out: NEA G12D IC50
Summary of the method: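 SOS1cat-driven loading of fluorescent GTP-DY-647P1 (150 nM) onto GST-KRAS-G12D (2-169, 0.25 nM) read by time-resolved FRET; SOScat 20 nM, compound preincubated with KRAS 1 h at RT. Signal blanked to no-SOS reactions, normalized to DMSO; IC50 fitted from the 30-min read.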

[4] = target: GST-tagged KRAS-G12V (2-169) (Homo sapiens, UniProt P01116, G12V); assay: Nucleotide exchange assay (NEA), SOS-mediated, HTRF, KRAS G12V; format: biochemical; settings: Table 4; IC50 extracted at 90 min; 80 nM SOS
Summary of the method: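 Exchange onto fluorescent GTP-DY-647P1 (150 nM final) catalysed by 80 nM SOS1cat was followed by Tb-anti-GST HTRF at RT for up to 90 min, after 1 h compound pre-incubation with 0.25 nM GST-tagged KRAS-G12V (2-169), pH 7.3. DMSO = 0%, no-SOS blank = 100%; 4-parameter IC50 taken at 90 min.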

Chain of GST-tagged KRAS-G12D (2-169) (P01116 2-169 isoform P01116-2 G12D): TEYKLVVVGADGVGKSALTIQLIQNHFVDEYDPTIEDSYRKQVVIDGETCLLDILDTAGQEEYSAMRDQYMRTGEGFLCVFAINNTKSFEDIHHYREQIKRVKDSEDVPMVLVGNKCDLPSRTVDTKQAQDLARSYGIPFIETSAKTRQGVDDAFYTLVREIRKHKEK
Chain of GST-tagged KRAS-G12V (2-169) (P01116 2-169 isoform P01116-2 G12V): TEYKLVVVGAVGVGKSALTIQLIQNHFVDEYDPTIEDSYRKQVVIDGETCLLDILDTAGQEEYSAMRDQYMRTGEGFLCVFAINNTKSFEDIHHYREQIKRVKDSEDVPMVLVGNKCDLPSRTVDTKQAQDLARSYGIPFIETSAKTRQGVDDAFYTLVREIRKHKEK

N#Cc1c(N)sc2c1C1(CC2)CN(c2nc(OC[C@@]34CCCN3C[C@H](F)C4)nc(N3CCCOC[C@H]3CO)n2)C1 [Compound 69, 2-amino-1′-[4-[[(2R,8S)-2-fluoro-1,2,3,5,6,7-hexahydropyrrolizin-8-yl]methoxy]-6-[(3R)-3-(hydroxymethyl)-1,4-oxazepan-4-yl]-1,3,5-triazin-2-yl]spiro[5,6-dihydrocyclopenta[b]thiophene-4,3′-azetidine]-3-carbonitrile]
IC50 [1]: 1 to 20 µM | IC50 [2]: 1 to 20 µM | IC50 [3]: 0.01 to 0.1 µM | IC50 [4]: 0.01 to 0.1 µM

C[C@@]1(O)C[C@@H](O)CN(c2nc(OC[C@@]34CCCN3C[C@H](F)C4)nc(N3CC4(CCc5sc(N)c(C#N)c54)C3)n2)C1 [Compound 47, 2-amino-1′-[4-[(3R,5R)-3,5-dihydroxy-3-methyl-1-piperidyl]-6-[[(2R,8S)-2-fluoro-1,2,3,5,6,7-hexahydropyrrolizin-8-yl]methoxy]-1,3,5-triazin-2-yl]spiro[5,6-dihydrocyclopenta[b]thiophene-4,3′-azetidine]-3-carbonitrile]
IC50 [1]: ≥ 20 µM | IC50 [2]: 0.1 to 1 µM | IC50 [3]: < 0.01 µM | IC50 [4]: < 0.01 µM

CCN(c1nc(OCC2(CN3C4CCC3COC4)CC2)nc(N2CC3(C2)SCc2sc(N)c(C#N)c23)n1)[C@H](C)c1cccnc1N [Compound 203, 2-amino-1′-[4-[[(1R)-1-(2-amino-3-pyridyl)ethyl]-ethyl-amino]-6-[[1-(3-oxa-8-azabicyclo[3.2.1]octan-8-ylmethyl)cyclopropyl]methoxy]-1,3,5-triazin-2-yl]spiro[6H-thieno[3,4-b]thiophene-4,3′-azetidine]-3-carbonitrile]
IC50 [1]: 0.01 to 0.1 µM | IC50 [2]: 0.01 to 0.1 µM | IC50 [3]: < 0.01 µM | IC50 [4]: < 0.01 µM

N#Cc1c(N)sc2c1C1(CC2)CN(c2nc(OC[C@@]34CCCN3C[C@H](F)C4)nc(N3CCc4n[nH]c(N)c4C3)n2)C1 [Compound 35, 2-amino-1′-[4-(3-amino-2,4,6,7-tetrahydropyrazolo[4,3-c]pyridin-5-yl)-6-[[(2R,8S)-2-fluoro-1,2,3,5,6,7-hexahydropyrrolizin-8-yl]methoxy]-1,3,5-triazin-2-yl]spiro[5,6-dihydrocyclopenta[b]thiophene-4,3′-azetidine]-3-carbonitrile]
IC50 [1]: ≥ 20 µM | IC50 [2]: 1 to 20 µM | IC50 [3]: 0.1 to 1 µM | IC50 [4]: 1 to 20 µM

N#Cc1c(N)sc2c1C1(CC2)CN(c2nc(OC[C@@]34CCCN3C[C@H](F)C4)nc(N3C[C@H](O)C[C@@H](O)C3)n2)C1 [Compound 26, 2-amino-1′-[4-[(3R,5R)-3,5-dihydroxy-1-piperidyl]-6-[[(2R,8S)-2-fluoro-1,2,3,5,6,7-hexahydropyrrolizin-8-yl]methoxy]-1,3,5-triazin-2-yl]spiro[5,6-dihydrocyclopenta[b]thiophene-4,3′-azetidine]-3-carbonitrile]
IC50 [2]: ≥ 20 µM | IC50 [3]: 0.01 to 0.1 µM | IC50 [4]: 0.01 to 0.1 µM

CN(C)CC1(COc2nc(N3CC4(CCc5sc(N)c(C#N)c54)C3)nc(N3CCC[C@@](C)(O)C3)n2)CC1(F)F (stereo partly drawn) [Compound 34, 2-amino-1′-[4-[[1-[(dimethylamino)methyl]-2,2-difluoro-cyclopropyl]methoxy]-6-[(3R)-3-hydroxy-3-methyl-1-piperidyl]-1,3,5-triazin-2-yl]spiro[5,6-dihydrocyclopenta[b]thiophene-4,3′-azetidine]-3-carbonitrile]
IC50 [2]: 0.01 to 0.1 µM | IC50 [3]: < 0.01 µM | IC50 [4]: < 0.01 µM

N#CNC1CCCN(c2nc(OC[C@@]34CCCN3C[C@H](F)C4)nc(N3CC4(CCc5sc(N)c(C#N)c54)C3)n2)C1 (stereo partly drawn) [Compound 33, [1-[4-(2-amino-3-cyano-spiro[5,6-dihydrocyclopenta[b]thiophene-4,3′-azetidine]-1′-yl)-6-[[(2R,8S)-2-fluoro-1,2,3,5,6,7-hexahydropyrrolizin-8-yl]methoxy]-1,3,5-triazin-2-yl]-3-piperidyl]cyanamide]
IC50 [2]: 0.1 to 1 µM | IC50 [3]: 0.01 to 0.1 µM | IC50 [4]: < 0.01 µM
